# Measured values: patent publication US11014920B2, “Factor XIIa inhibitors” (Merck Sharp & Dohme Corp., priority 2016, dated 2021)
# Target: purified human Factor XIIa (Homo sapiens (Human), UniProt P00748)
# Experiment: Factor XIIa assay
# Format: biochemical
# Conditions: substrate n-Acetyl-Lys-Pro-Arg-AFC 100 μM, pH 7.4, read-out: FXIIa IC50
# Description: “FXIIa IC50(nm)” is Human Factor XIIa IC50 (nm).
# The effectiveness of a compound of the present invention as an inhibitor of Coagulation Factor XIIa can be determined using a relevant purified serine protease, and an appropriate synthetic substrate. The rate of hydrolysis of the chromogenic or fluorogenic substrate by the relevant serine protease was measured both in the absence and presence of compounds of the present invention. Assays were conducted at room temperature or at 37° C. […] A decrease in the rate of fluorescence change in the presence of inhibitor is indicative of enzyme inhibition. Such methods are known to one skilled in the art. The results of this assay are expressed as the IC50, the inhibitor concentration causing a 50% decrease in Factor XIIa protease activity.
# Factor XIIa activity determinations were made in 50 mM HEPES buffer containing 150 mM NaCl, 5 mM CaCl2, and 0.1% PEG 8000 (polyethylene glycol; JT Baker or Fisher Scientific) at pH 7.4. Determinations were made using purified human Factor XIIa at a final concentration of […] (Sekisui Diagnostics) and the synthetic substrate, n-Acetyl-Lys-Pro-Arg-AFC, TFA salt (Sigma # C6608) at a concentration of 100 μM.
# Times required to achieve equilibration between enzyme and inhibitor were determined in control experiments. Initial velocities of product formation in the absence (Vo) or presence of inhibitor (Vi) were measured.
# purified human Factor XIIa, sequence (P00748 373-615): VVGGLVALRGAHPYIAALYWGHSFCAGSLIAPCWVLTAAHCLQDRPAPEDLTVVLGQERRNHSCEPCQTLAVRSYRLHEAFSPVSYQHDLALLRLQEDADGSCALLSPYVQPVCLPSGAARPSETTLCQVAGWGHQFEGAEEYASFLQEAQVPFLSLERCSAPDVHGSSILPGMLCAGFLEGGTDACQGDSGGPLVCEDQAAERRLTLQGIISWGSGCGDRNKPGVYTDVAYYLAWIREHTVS
# purified human Factor XIIa, sequence (P00748 20-372 partner): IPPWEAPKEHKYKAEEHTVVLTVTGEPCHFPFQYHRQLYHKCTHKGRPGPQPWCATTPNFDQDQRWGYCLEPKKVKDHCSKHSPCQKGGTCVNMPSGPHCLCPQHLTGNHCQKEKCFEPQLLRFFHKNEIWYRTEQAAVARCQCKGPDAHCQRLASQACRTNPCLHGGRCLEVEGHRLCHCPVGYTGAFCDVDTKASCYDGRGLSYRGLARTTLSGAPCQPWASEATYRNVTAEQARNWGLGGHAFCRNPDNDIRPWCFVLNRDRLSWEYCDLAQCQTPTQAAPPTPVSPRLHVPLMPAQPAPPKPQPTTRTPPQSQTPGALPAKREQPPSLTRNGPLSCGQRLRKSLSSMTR
row,Compound,IC50 [µM]
1,"CN(C)CCCC[C@H](C(=O)N1CC[C@@H](NC(=O)c2ccccc2)[C@@H](C(=O)NCc2cccs2)C1)N(C)C1CCCCC1 [Compound 8, (3S,4R)-1-(N~2~- cyclohexyl-N~2~,N~6~,N~6~- trimethyl-D-lysyl)-4-[(phenylcarbonyl)amino]-N-(thiophen-2-ylmethyl)piperidine-3-carboxamide]",0.0602
2,"CN(C)CCCC[C@H](C(=O)N1CC[C@@H](NC(=O)c2ccc(F)cc2)[C@@H](C(=O)NCc2cccs2)C1)N(C)C1CCCCC1 [Compound 6, (3S,4R)-1-(N~2~- cyclohexyl-N~2~,N~6~,N~6~- trimethyl-D-lysyl)-4-{[(4-fluoro-phenyl)carbonyl]amino}-N-(thiophen-2-ylmethyl)piperidine-3-carboxamide]",0.0983
3,"Cc1cnc(C(=O)NC2CCN(C(=O)[C@@H](CC3CCCCC3)NC3CCCCC3)CC2C(=O)NCc2ccc(CN)cc2)s1 (stereo partly drawn) [Compound 2, N-[4-(aminomethyl)benzyl]-1-(N,3-dicyclohexyl-D-alanyl)-4-{[(5-methyl-1,3-thiazol-2-yl)carbonyl]amino}pi-peridine-3-carboxamide]",0.0733
4,"NCc1ccc(CNC(=O)[C@H]2CN(C(=O)[C@@H](CC3CC3)NC3CCCCC3)CC[C@H]2NC(=O)N2CCC3(CC2)CC3)cc1 [Compound 12, N-[(3S,4R)-3-{[4-(amino-methyl)benzyl]carbamoyl}-1-(N-cyclohexyl-3-cyclopropyl-D-alanyl)piperidin-4-yl]-6-azaspiro[2.5]octane-6-carboxamide]",0.0417
5,"NCCCC[C@@H](NC1CCCCC1)C(=O)N1CC[C@@H](NC(=O)N2CCC3(CC2)CC3)[C@@H](C(=O)NCc2ccccc2)C1 [Compound 13, N-[(3S,4R)-3-(benzylcarbamoyl)-1-(N~2~-cyclohexyl-D-lysyl)piperidin-4-yl]-6-azaspiro[2.5]octane-6-carboxamide]",0.0983
6,"NCCCC[C@@H](NC1CCCCC1)C(=O)N1CC[C@@H](NC(=O)N2CCC3(CC2)CC3)[C@@H](C(=O)NCc2cccs2)C1 [Compound 11, N-{(3S,4R)-1-(N~2~- cyclohexyl-D-lysyl)-3-[(thiophen-2-ylmethyl)carbamoyl]pi-peridin-4-yl}-6-azaspiro[2.5]octane-6-carboxamide]",0.0716
7,"CN(CCCC[C@@H](NC1CCCCC1)C(=O)N1CC[C@@H](NC(=O)N2CCC3(CC2)CC3)[C@@H](C(=O)NCc2cccs2)C1)S(C)(=O)=O [Compound 32, N-{(3S,4R)-1-[N~2~- cyclohexyl-N~6~- methyl-N~6~- (methylsulfonyl)-D-lysyl]-3-[(thiophen-2-ylmethyl)carbamoyl]pi-peridin-4-yl}-6-azaspiro[2.5]octane-6-carboxamide]",0.0225
8,"O=C(NCc1cccs1)[C@H]1CN(C(=O)[C@@H](CCCCNCC(F)(F)F)NC2CCCCC2)CC[C@H]1NC(=O)N1CCC2(CC1)CC2 [Compound 22, N-{(3S,4R)-1-[N~2~- cyclohexyl-N~6~- (2,2,2-trifluoroethyl)-D-lysyl]-3-[(thiophen-2-ylmethyl)carbamoyl]pi-peridin-4-yl}-6-azaspiro[2.5]octane-6-carboxamide]",0.0465
9,"O=C(NCc1cccs1)[C@H]1CN(C(=O)[C@@H](CCCCNS(=O)(=O)C2CC2)NC2CCCCC2)CC[C@H]1NC(=O)N1CCC2(CC1)CC2 [Compound 19, N-{(3S,4R)-1-[N~2~- cyclohexyl-N~6~- (cyclopropylsulfonyl)-D-lysyl]-3-[(thiophen-2-ylmethyl)carbamoyl]pi-peridin-4-yl}-6-azaspiro[2.5]octane-6-carboxamide]",0.0431
10,"Cc1ccc(C(=O)N[C@@H]2CCN(C(=O)[C@@H](CCCCN(C)C)N(C)C3CCCCC3)C[C@@H]2C(=O)NCc2cccs2)c(F)c1 [Compound 29, (3S,4R)-1-(N~2~- cyclohexyl-N~2~,N~6~,N~6~- trimethyl-D-lysyl)-4-{[(2-fluoro-4-methyl-phenyl)carbonyl]amino}-N-(thiophen-2-ylmethyl)piperidine-3-carboxamide]",0.0376
11,"CN(C)CCCC[C@H](C(=O)N1CC[C@@H](NC(=O)N2CCC3(CC2)CC3)[C@@H](C(=O)NCc2cccs2)C1)N(C)C1CCCCC1 [Compound 33, N-{(3S,4R)-1-(N~2~- cyclohexyl-N~2~,N~6~,N~6~- trimethyl-D-lysyl)-3-[(thiophen-2-ylmethyl)carbamoyl]pi-peridin-4-yl}-6-azaspiro[2.5]octane-6-carboxamide]",0.0151
12,"CN(C)CCCC[C@@H](NC1CCCCC1)C(=O)N1CC[C@@H](NC(=O)N2CCC3(CC2)CC3)[C@@H](C(=O)NCc2cccs2)C1 [Compound 34, N-{(3S,4R)-1-(N~2~- cyclohexyl-N~6~,N~6~-dimethyl-D-lysyl)-3-[(thiophen-2-ylmethyl)carbamoyl]pi-peridin-4-yl}-6-azaspiro[2.5]octane-6-carboxamide]",0.0057
